Usually IC50 stands for the midpoint of a concentration-inhibition curve.

Here are results for 22 compounds from US20260125359A1, “HETEROARYL COMPOUNDS AS MULTI-TARGET PROTEIN KINASE INHIBITORS” (FUJIAN HAIXI PHARMACEUTICALS CO., LTD., priority 2023, published 2026).

For this assay, the system named is M-NFS-60 cells. Description: M-NFS-60 cell in vitro assay (CCK, 48 h, M-CSF factor medium). The class given is cell-based. The following applies: M-NFS-60 cells; read-out: M-NFS-60cellassay IC50. The procedure, abridged: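 Mouse M-NFS-60 cells (2000/well) in RPMI-1640 with 10% serum and M-CSF (25 ng/ml) were pre-incubated 4 h, then exposed to DMSO-diluted compound gradients for 48 h at 5% CO2. Viability read by CCK, 2 h, OD 450 nm; IC50 from curve fitting.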
As to `Cn1cc2cc(N[C@H]3CCc4c(C(=O)Nc5cccc(C6CC6)c5)cccc43)cnc2n1` [Compound 74c], the IC50 is 50 to 200 nM. In the case of `Cc1ccc(C(=O)Nc2cccc3c2CC[C@@H]3Oc2cc(-c3cnn(C)c3)cnc2N)cc1C` [Compound 3f] it was under 50 nM. To `Cc1cccc(C(=O)Nc2cccc3c2CC[C@@H]3Nc2cnc3cn(C)nc3c2)c1F` [Compound 82, (S)-2-fluoro-3-methyl-N-(1-((2-methyl-2H-pyrazolo[4,3-b]pyridin-6-yl)amino)-2,3-dihydro-1H-inden-4-yl)benzamide] belongs under 50 nM. In the case of `Cn1ncc2ncc(N[C@H]3CCc4c(Nc5noc(C(C)(C)C)n5)cccc43)cc21` [Compound 93a] it was under 50 nM; in that of `COc1ccc(NC(=O)c2cccc3c2CC[C@@H]3Nc2cncc(-c3cnn(C)c3)c2)cc1` [Compound 14am], under 50 nM; in that of `Cc1ccc(F)c(NC(=O)c2cccc3c2CC[C@@H]3Oc2cnc3cnn(C)c3c2)c1` [Compound 76ah], under 50 nM. As for `Cn1cc2ncc(N[C@H]3CCc4c(Nc5noc(C6(C(F)(F)F)CCCC6)n5)cccc43)cc2n1` [Compound 93l], the half-inhibitory concentration (IC50) was under 50 nM. To `Cn1cc(-c2cncc(N[C@H]3CCc4c(NC(=O)Nc5ccccc5F)cccc43)n2)cn1` [Compound 65e] belongs under 50 nM; to `Cn1cc(-c2cncc(N[C@H]3CCc4c(NCc5cccc(F)c5)cccc43)n2)cn1` [Compound 60d], over 500 nM.

On to `CC(C)NC(=O)c1cccc2c1CC[C@@H]2Nc1cncc(-c2cnn(C)c2)n1` [Compound 27e], for which the IC50 was 50 to 200 nM.

Consider `Cn1cc2ncc(O[C@H]3CCc4c(C(=O)Nc5cccc(C6CC6)c5)cccc43)cc2n1` [Compound 76af], for which the IC50 is under 50 nM.

Consider `Cn1ncc2ccc(N[C@H]3CCc4c(C(=O)Nc5cccc(C6CC6)c5)cccc43)cc21` [Compound 74b], for which the 50% inhibitory concentration (IC50) is over 500 nM. To `Cn1cc(-c2cncc(N[C@H]3CCc4c(C(=O)NN5CC6CCCC6C5)cccc43)n2)cn1` (stereo partly shown) [Compound 27i] belongs under 50 nM; to `O=C(Nc1cccc(C2CC2)c1)c1cccc2c1CC[C@@H]2Nc1cnc2ccnn2c1` [Compound 74g], under 50 nM; to `O=C(Nc1cccc(C2CC2)c1)c1cccc2c1CC[C@@H]2Nc1cnc2cn[nH]c2c1` [Compound 97, (S)-1-((1H-pyrazolo[4,3-b]pyridin-6-yl)amino)-N-(3-cyclopropylphenyl)-2,3-dihydro-1H-indene-4-carboxamide], under 50 nM. For the compound `Cn1ncc2ncc(O[C@H]3CCc4c(C(=O)Nc5cncc(C6CC6)c5)cccc43)cc21` [Compound 76at], the IC50 is under 50 nM.

Turning to `CC(C)(C)c1nnc(Nc2cccc3c2CC[C@@H]3Nc2cncc(Cl)c2)s1` [Compound 42i], the IC50 was in the range of 50 to 200 nM. On to `Cn1cc(-c2cncc(N[C@H]3CCc4c(C(=O)Nc5ccccc5F)cccc43)n2)cn1` [Compound 27n], for which the concentration for half-maximal inhibition (IC50) was under 50 nM. To `Cc1ncc(-c2cnn(C)c2)cc1O[C@H]1CCc2c(NC(=O)c3ccc(C(F)(F)F)cc3)cccc21` [Compound 72, (S)—N-(1-((2-methyl-5-(1-methyl-1H-pyrazol-4-yl)pyridin-3-yl)oxy)-2,3-dihydro-1H-inden-4-yl)-4-(trifluoromethyl)benzamide] belongs over 500 nM; to `Cn1cc2ncc(N[C@H]3CCc4c(Nc5cc(C(C)(C)C)on5)cccc43)cc2n1` [Compound 90, (S)—N^4-(5-(tert-butyl)isoxazol-3-yl)-N^1-(2-methyl-2H-pyrazolo[4,3-b]pyridin-6-yl)-2,3-dihydro-1H-indene-1,4-diamine], under 50 nM. In the case of `COc1ccc(F)c(NC(=O)c2cccc3c2CC[C@@H]3Oc2cnc3cn(C)nc3c2)c1` [Compound 76ay] it was under 50 nM; in that of `Cn1cc(-c2cncc(N[C@H]3CCc4c(NC(c5cccc(Cl)c5)C(F)(F)F)cccc43)n2)cn1` (stereo partly drawn) [Compound 61, (1S)—N^4-(1-(3-chlorophenyl)-2,2,2-trifluoroethyl)-N1-(6-(1-methyl-1H-pyrazol-4-yl)pyrazin-2-yl)-2,3-dihydro-1H-indene-1,4-diamine], over 500 nM.
